Test results taken from patent publication US10597366B2, “Aryl ethers and uses thereof” (Peloton Therapeutics, Inc., priority 2013, dated 2020).

Tests used:
[1] = test system: renal cell carcinoma 786-O xenograft; assay: In vivo efficacy study, 786-O xenograft; set-up: species or system SCID/Biege mice; conditions: all treatment groups; t-Test; Compound 15 20 days, Compound 163 28 days
human VEGFA = assay: Plasma human VEGFA level of 786-O xenograft bearing mice; assay type: in vivo; conditions: 10, 30 and 100 mg/kg, three times at 12 hour intervals, prior to vs 12 h post treatment, FIG. 5
[2] = test system: 786-O-Hif-Luc cells (luciferase gene driven by multiple HIF responsive elements); assay: Luciferase Assay; assay type: cell-based; conditions: 24 h, 786-O-Hif-Luc cells, about 24 hours; read-out: Mean Luciferease EC50
Method: A pool of infected cells were then selected against 2 μg/mL of puromycin (P8833, Sigma) for 10 days followed by limited dilution to select single clones.
Each concentration was tested in triplicate. After about 24 hours, luciferase activity was determined using ONE-Glo Luciferase Assay Reagent (E6110, Promega) following the manufacturer's recommended procedure. EC50 were calculated by using Dotmatics software.

[3] = test system: EPO and PGK1 mRNA in mouse kidney; assay: In vivo PK/PD study: mouse kidney mRNA levels by qRT-PCR; set-up: species or system SCID/Biege mice; conditions: oral gavage three times at 12 hour intervals; 10, 30 or 100 mg/kg
Method: About 5×10^6 renal cell carcinoma 786-O tumor cells (ATCC® CRL-1932, VHL and HIF-1α null cell line) in PBS and Matrigel (1:1 in volume) were injected subcutaneously at the right flanks of SCID/Biege mice at 6-7 weeks of age for xenograft development. When the xenografts reached about 450 mm^3 in size, the tumor bearing mice were randomly divided into 4 groups (n=4). Plasma was collected prior to treatment by retro-orbital bleeding. […] All animals were sacrificed at 12 hours post last dose. Tumor, kidney, and plasma were collected from each animal. Total RNA was extracted from the tumors and kidneys. The mRNA levels of HIF-1α, HIF-2α and their respective target genes were determined by qRT-PCR (FIG. 1).

[4] = test system: VEGFA concentration in medium of 786-O cells; assay: VEGF ELISA Assay; assay type: cell-based; conditions: Homo sapiens, 786-0, 786-O cells; read-out: Mean VEGF ELISA EC50
Method: Each concentration had duplicated wells. About 20 hours later, medium was removed by suction and each well was supplied with 180 μL of growth medium. About 20 μl freshly-made 10× compound stocks were added to each well. […] The EC50 was calculated by GraphPad Prism using the dose-response-inhibition (four parameter) equation. The cell seeded plate was then subjected to CellTiter-Glo luminescence cell viability assay (Promega) by adding 50 μL of Celltiter Glo reagent into each well and shaking the plate for 8 minutes at 550 rpm (Thermomixer R, Eppendorf) then read luminescence signal in plate reader (3 second delay, 0.5 second/well integration time, Synergy 2 multi Detection Microplate reader) immediately.

Structure (SMILES)	Tumor size versus vehicle [1]	plasma level of human VEGFA (human VEGFA)	EC50 [2] [nM]	Mouse kidney EPO mRNA level (HIF-2α specifically regulated gene) [3]	Mouse kidney PGK1 mRNA level (HIF-1α targeted gene) [3]	EC50 [4] [nM]
N#Cc1cc(F)cc(Oc2ccc(S(=O)(=O)C(F)F)c3c2CC(F)(F)[C@H]3O)c1 [Compound 15, 3-[(1S)-7-(difluoromethylsulfonyl)-2,2-difluoro-1-hydroxy-indan-4-yl]oxy-5-fluoro-benzonitrile]	statistically significant reduction	reduced	7	reduced	remained unchanged	–
O=[N+]([O-])c1c(Oc2cc(F)cc(Cl)c2)ccc(C(F)(F)F)c1Cl [Compound 203, 2-Chloro-4-(3-chloro-5-fluorophenoxy)-3-nitro-1-(trifluoromethyl)benzene]	–	–	630	–	–	700
O=S(=O)(c1ccc(Oc2cc(F)cc(F)c2)c2c1[C@H](O)CC2)C(F)F [Compound 2, (R)-7-((Difluoromethyl)sulfonyl)-4-(3,5-difluorophenoxy)-2,3-dihydro-1H-inden-1-ol]	–	–	70	–	–	62
N#Cc1cc(F)cc(Oc2ccc(S(=O)(=O)C(F)(F)F)c3c2CC(F)(F)[C@H]3O)c1 [Compound 185, (S)-3-((2,2-Difluoro-1-hydroxy-7-((trifluoromethyl)sulfonyl)-2,3-dihydro-1H-inden-4-yl)oxy)-5-fluorobenzonitrile]	–	–	3	–	–	4
N#Cc1cccc(Oc2ccc(S(=O)(=O)C(F)(F)F)c(C#N)c2Br)c1 [Compound 99, 2-Bromo-3-(3-cyanophenoxy)-6-((trifluoromethyl)sulfonyl)benzonitrile]	–	–	420	–	–	550
N#Cc1cncc(Oc2ccc(C(F)(F)F)c3c2CC(F)(F)[C@H]3O)c1 [Compound 303, 5-[(1S)-2,2-difluoro-1-hydroxy-7-(trifluoromethyl)indan-4-yl]oxypyridine-3-carbonitrile]	–	–	35	–	–	64
O=S(=O)(c1ccc(Oc2cncc(Cl)c2)c2c1[C@H](O)C(F)(F)C2)C(F)(F)F [Compound 186, (S)-4-((5-Chloropyridin-3-yl)oxy)-2,2-difluoro-7-((trifluoromethyl)sulfonyl)-2,3-dihydro-1H-inden-1-ol]	–	–	11	–	–	13
CS(=O)(=O)c1ccc(Oc2cc(F)cc(Br)c2)c2c1[C@H](O)C(F)(F)C2 [Compound 304, (S)-4-(3-bromo-5-fluorophenoxy)-2,2-difluoro-7-(methylsulfonyl)-2,3-dihydro-1H-inden-1-ol]	–	–	22	–	–	62
CS(=O)(=O)c1ccc(Oc2cc(F)cc(C#N)c2)c2c1[C@H](O)C(F)(F)[C@@H]2F [Compound 292, 3-fluoro-5-[(1S,3R)-2,2,3-trifluoro-1-hydroxy-7-methylsulfonyl-indan-4-yl]oxy-benzonitrile]	–	–	3.1	–	–	6.2
O=S(=O)(c1ccc(Oc2ccc(F)cc2)c2c1[C@H](O)C(F)(F)C2)C(F)(F)F [Compound 230, (S)-2,2-Difluoro-4-(4-fluorophenoxy)-7-((trifluoromethyl)sulfonyl)-2,3-dihydro-1H-inden-1-ol]	–	–	16	–	–	29
O=S(=O)(c1ccc(Oc2cc(F)cc(Cl)c2)c2c1[C@H](O)C(F)(F)C2)C(F)F [Compound 158, (1S)-4-(3-Chloro-5-fluoro-phenoxy)-7-(difluoromethylsulfonyl)-2,2-difluoro-indan-1-ol]	–	–	5	–	–	6
O=S(=O)(c1ccc(Oc2cncc(F)c2)c2c1[C@H](O)C(F)(F)C2)C(F)(F)F [Compound 309, (S)-2,2-difluoro-4-((5-fluoropyridin-3-yl)oxy)-7-((trifluoromethyl)sulfonyl)-2,3-dihydro-1H-inden-1-ol]	–	–	9	–	–	26
O=S(=O)(c1ccc(Oc2cc(F)cc(F)c2)c2c1[C@H](O)CC2)C(F)(F)F [Compound 55, (R)-4-(3,5-Difluorophenoxy)-7-((trifluoromethyl)sulfonyl)-2,3-dihydro-1H-inden-1-ol]	–	–	32	–	–	35
N#Cc1c(S(=O)(=O)C(F)(F)F)ccc(Oc2cc(F)cc(Cl)c2)c1Br [Compound 98, 2-Bromo-3-(3-chloro-5-fluorophenoxy)-6-((trifluoromethyl)sulfonyl)benzonitrile]	–	–	3300	–	–	1580
Cc1c(S(=O)(=O)C(F)F)ccc(Oc2cc(F)cc(F)c2)c1C#N [Compound 34, 3-((Difluoromethyl)sulfonyl)-6-(3,5-difluorophenoxy)-2-methylbenzonitrile]	–	–	520	–	–	460
N#Cc1cc(F)cc(Oc2ccc(S(=O)(=O)C(F)F)cc2Br)c1 [Compound 132, 3-(2-Bromo-4-((difluoromethyl)sulfonyl)phenoxy)-5-fluorobenzonitrile]	–	–	1400	–	–	680
O=S(=O)(c1ccc(Oc2cc(F)cc(Cl)c2)c2c1C(O)C(F)(F)C2)C(F)F (stereo not shown) [Compound 8, 4-(3-chloro-5-fluoro-phenoxy)-7-(difluoromethylsulfonyl)-2,2-difluoro-indan-1-ol]	–	–	17	–	–	33
CS(=O)(=O)c1ccc(Oc2cc(F)cc(F)c2)c2c1[C@H](O)C(F)(F)C2 [Compound 161, (S)-4-(3,5-Difluorophenoxy)-2,2-difluoro-7-(methylsulfonyl)-2,3-dihydro-1H-inden-1-ol]	–	–	4	–	–	11
CS(=O)(=O)c1ccc(Oc2cncc(C#N)c2)c2c1[C@H](O)C(F)(F)[C@@H]2F [Compound 342, 5-(((1S,3R)-2,2,3-trifluoro-1-hydroxy-7-(methylsulfonyl)-2,3-dihydro-1H-inden-4-yl)oxy)nicotinonitrile]	–	–	91	–	–	52
CS(=O)(=O)c1ccc(Oc2cc(F)cc(F)c2)c2c1C(O)C(F)(F)C2 (stereo not shown) [Compound 159, 4-(3,5-Difluorophenoxy)-2,2-difluoro-7-(methylsulfonyl)-2,3-dihydro-1H-inden-1-ol]	–	–	5	–	–	7
